Experiments:
[1] = molecular target: T1, HMG-CoA reductase (Rattus norvegicus, UniProt P51639); assay: HMG-CoA reductase activity assay (modified Hulcher's method) on liver microsomes of the diet-fed rats; assay type: biochemical; conditions: ex vivo: liver microsomes of rats fed 1 % cholesterol plus 0.05 % neohesperidin dihydrochalcone for six weeks, versus Control group
T1 construct: the supernatant was ultracentrifuged at 100,000xg for 60 minutes to obtain microsomal precipitates; from tissue; host or cells: rat liver microsomes
T1 sequence (P51639 1-887): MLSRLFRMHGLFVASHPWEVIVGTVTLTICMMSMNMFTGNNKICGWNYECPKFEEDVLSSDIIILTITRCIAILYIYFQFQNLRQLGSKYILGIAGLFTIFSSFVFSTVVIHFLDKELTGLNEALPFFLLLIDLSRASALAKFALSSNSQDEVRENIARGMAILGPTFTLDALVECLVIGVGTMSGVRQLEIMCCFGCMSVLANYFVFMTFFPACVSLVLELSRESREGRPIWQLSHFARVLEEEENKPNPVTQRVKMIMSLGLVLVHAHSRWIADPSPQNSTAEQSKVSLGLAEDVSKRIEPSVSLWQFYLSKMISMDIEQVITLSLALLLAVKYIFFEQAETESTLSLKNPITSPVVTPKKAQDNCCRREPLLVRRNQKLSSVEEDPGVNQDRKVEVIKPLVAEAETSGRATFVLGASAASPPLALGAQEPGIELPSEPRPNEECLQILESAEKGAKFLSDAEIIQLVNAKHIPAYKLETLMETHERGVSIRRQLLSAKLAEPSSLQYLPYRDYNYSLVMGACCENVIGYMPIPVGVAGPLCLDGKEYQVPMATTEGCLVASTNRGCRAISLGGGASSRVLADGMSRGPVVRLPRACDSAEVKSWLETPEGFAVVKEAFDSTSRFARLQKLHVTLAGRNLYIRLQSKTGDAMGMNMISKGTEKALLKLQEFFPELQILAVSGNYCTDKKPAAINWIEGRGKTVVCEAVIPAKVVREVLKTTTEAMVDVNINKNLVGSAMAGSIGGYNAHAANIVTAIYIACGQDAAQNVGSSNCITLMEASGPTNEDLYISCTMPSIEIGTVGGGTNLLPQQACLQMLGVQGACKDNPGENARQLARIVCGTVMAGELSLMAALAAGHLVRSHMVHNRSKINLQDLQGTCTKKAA
Experimental: In order to determine the activity of HMG-CoA reductase, Hulcher's method was employed after some modification (see J. Lipid Res., 14, 625-641(1973)). In this method, the concentration of the coenzyme-A(CoA-SH), which is produced when HMG-CoA is reduced to a mevalonate salt by the action of HMG-CoA reductase, is determined by spectroscopy and the activity of HMG-GoA reductase is calculated therefrom.
3 g of liver tissue taken from each group of rats of Example 2 was washed succesively with 100 ml of a cold-saline(0.15M NaCl) and 100ml of a cold buffer solution A(0.1M triethanolamine, HCl/0.2M EDTA/2mM dithiothreitol(DTT)). The cold buffer solution A was added to the liver tissue in an amount of 2 ml per 1 g of the liver tissue and the mixture was homogenized with a homogenizer. The homogenate was centrifuged at 15,000xg for 15 minutes, and then, the supernatant was ultracentrifuged at 100,000xg for 60 minutes to obtain microsomal precipitates. […]
Then, the reactant was mixed with 20µl of DTNB buffer solution(3mM DTNH/0.1M triethanolamine/0.2M EDTA, pH 7.4) and the absorbance of the mixture was determined at 412nm to calculate the amount of CoA-SH(activity of HMG-CoA reductase).
The extent of inhibition of HMG-CoA reductase activity by neohesperidin dihydrochalcone was calculated based on the above result.

[2] = test system: New Zealand White rabbits; assay: Chemical analysis of blood of cholesterol-fed rabbits; assay type: in vivo
Experimental: 30 three-month-old New Zealand White rabbits(Yeonam Horticulture and Animal Husbandry College, Korea), each weighing about 2.5 to 2.6 kg, were raised under a condition of temperature 20±2°C, relative humidity 55±5 %, and photoperiod 12L/12D. The rabbits were divided into 3 groups and 3 groups of rabbits were fed with 3 different diets, i.e., RC4 diet(Oriental Yeast Co., Japan) containing 1 % cholesterol(Control group); 1 % cholesterol plus 1 mg/kg Lovastatin®(Merck, U.S.A.)(Lovastatin group); and 1 % cholesterol plus 0.05 % neohesperidin dihydrochalcone(Neohesperidin dihydrochalcone group), respectively. RC4 diet comprises 7.6 % moisture, 22.8 % crude protein, 2.8 % crude fat, 8.8 % crude ash, 14.4 % crude cellulose and 43.6 % soluble nitrogen-free substances. Neohesperidin dihydrochalcone was purchased from Sigma Chemical Co.(St. Louis, MO).
The rabbits were fed for 6 weeks while being allowed free access to the diets and water.
After six weeks, the rabbits were anesthetized with an intramuscular injection of ketamine (50 mg/kg) in the femoral region and sacrificed.

[3] = rabbit serum, 1 % cholesterol diet for 6 weeks plus 1 mg/kg Lovastatin or 0.05 % neohesperidin dihydrochalcone
[4] = rabbits, 1 % cholesterol plus 0.05 % neohesperidin dihydrochalcone, 6 weeks

Compound: COc1ccc(CCC(=O)c2c(O)cc(O[C@@H]3O[C@H](CO)[C@@H](O)[C@H](O)[C@H]3O[C@@H]3O[C@@H](C)[C@H](O)[C@@H](O)[C@H]3O)cc2O)cc1O [Neohesperidin dihydrochalcone]
- Inhibition of HMG-CoA reductase activity (%) [1]: 30%
- GOT [2, 3]: 53 (±23) IU/1
- GPT [2, 3]: 42 (±20) IU/l
- Total-C [2, 3]: 1293 (±89) mg/dl
- γ-GTP [2, 3]: 7.8 (±5) IU/l
- reducing serum GOT and GPT levels, compared with Lovastatin® ([2]; rabbits, 1 % cholesterol diet, 6 weeks): more effective
- serum GOT level lowered, as compared to the Control group [2, 4]: 31%
- serum GPT level lowered, as compared to the Control group [2, 4]: 35%
